US20090233937A1 (TAKEDA PHARMACEUTICAL COMPANY LIMITED, priority 2008, published 2009)

What follows are compounds tested on human breast cancer cell BT-474 (assay: Inhibitory action on breast cancer cell BT-474 proliferation in vitro). Conditions: 120 h, BT-474 cells, cultured for 5 days with compound, SRB dye protein content.
Assay type: cell-based
Procedure: A suspension of human breast cancer cell BT-474 (100 μl (6,000 cells)) were plated in a 96-well microplate and cultured in an incubator (37° C., 5% carbon dioxide). On the following day, 100 μl of a solution of each test compound previously diluted serially in 2-fold, was added, and the cells were cultured for 5 days. After the culture medium containing the test compound was removed, the cells were washed and fixed with 50% trichloroacetic acid, after which a 0.4% (w/v) SRB dye solution (dissolved in 1% acetic acid) was added to stain as well as fix the cell protein (Skehan et al., Journal of the National Cancer Institute, Vol. 82, pp. 1107-1112, 1990). After washing with a 1% acetic acid solution, 100 μl of extract solution (10 mM, Tris buffer) was added to extract the dye and the absorbance was measured at a wavelength of 550 nm to quantify the amount of cells as protein content.

IC50 [nM] | SMILES
< 100 | CC(C)(CO)C(=O)NCCn1ccc2ncnc(Nc3ccc(Oc4cccc5sncc45)c(F)c3)c21 [Example 11, N-[2-(4-{[4-(1,2-benzoisothiazol-4-yloxy)-3-fluorophenyl]amino}-5H-pyrrolo[3,2-d]pyrimidin-5-yl)ethyl]-3-hydroxy-2,2-dimethylpropanamide]
< 100 | CC(C)NC(=O)NCCn1ccc2ncnc(Nc3ccc(Oc4cccc5sncc45)c(Cl)c3)c21 [Example 54, 1-[2-(4-{[4-(1,2-benzoisothiazol-4-yloxy)-3-chlorophenyl]amino}-5H-pyrrolo[3,2-d]pyrimidin-5-yl)ethyl]-3-(1-methylethyl)urea methanesulfonate]

More lines, now with the values behind:

SMILES | IC50 [nM]
OCCn1ccc2ncnc(Nc3ccc(Oc4cccc5sncc45)c(Cl)c3)c21 [Example 3, 2-(4-{[4-(1,2-benzoisothiazol-4-yloxy)-3-chlorophenyl]amino}-5H-pyrrolo[3,2-d]pyrimidin-5-yl)ethanol] | < 100
CC(=O)NCCn1ccc2ncnc(Nc3ccc(Oc4cccc5sncc45)c(Cl)c3)c21 [Example 7, N-[2-(4-{[4-(1,2-benzoisothiazol-4-yloxy)-3-chlorophenyl]amino}-5H-pyrrolo[3,2-d]pyrimidin-5-yl)ethyl]acetamide methanesulfonate] | < 100
Cc1cc(Nc2ncnc3ccn(CCNC(=O)C(C)(C)CO)c23)ccc1Oc1cccc2sncc12 [Example 39, N-[2-(4-{[4-(1,2-benzoisothiazol-4-yloxy)-3-methylphenyl]amino}-5H-pyrrolo[3,2-d]pyrimidin-5-yl)ethyl]-3-hydroxy-2,2-dimethylpropanamide] | < 100
CC(C)(N)C(=O)NCCn1ccc2ncnc(Nc3ccc(Oc4cccc5sncc45)c(Cl)c3)c21 [Example 53, N-[2-(4-{[4-(1,2-benzoisothiazol-4-yloxy)-3-chlorophenyl]amino}-5H-pyrrolo[3,2-d]pyrimidin-5-yl)ethyl]-2-methylalaninamide dimethanesulfonate] | < 100
